# Measurements reported in patent US12116358B2, “Substituted indoles and methods of use thereof” (EPIZYME, INC., priority 2018, dated 2024).
# Where two headings read alike, the source gives them in different places.
# Assays:
# H3K36me3 in A549 cells = assay: In-Cell Western (ICW) assay of SETD2 inhibitors (A549 assay); format: cell-based, human; conditions: A549 cells, read-out: SETD2 A549
# In short: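 A549 cells seeded at 4,000/well onto compound and incubated 3 days at 37° C. Methanol-fixed cells stained overnight at 4° C with anti-H3K36me3 (1:1000), then IRDye 800CW secondary with DRAQ5 DNA counterstain. Plates read by Licor imaging at 700 and 800 channels.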
# SETD2(1434-1711) = target: T1, SETD2(1434-1711) (Homo sapiens, UniProt Q9BYW2); assay: SETD2 (1434-1711) assay; format: biochemical; conditions: read-out: SETD2 (1434-1711)
# T1 construct: SETD2 (1434-1711) Assay; catalogue N/A
# T1 sequence (Q9BYW2 1434-1711): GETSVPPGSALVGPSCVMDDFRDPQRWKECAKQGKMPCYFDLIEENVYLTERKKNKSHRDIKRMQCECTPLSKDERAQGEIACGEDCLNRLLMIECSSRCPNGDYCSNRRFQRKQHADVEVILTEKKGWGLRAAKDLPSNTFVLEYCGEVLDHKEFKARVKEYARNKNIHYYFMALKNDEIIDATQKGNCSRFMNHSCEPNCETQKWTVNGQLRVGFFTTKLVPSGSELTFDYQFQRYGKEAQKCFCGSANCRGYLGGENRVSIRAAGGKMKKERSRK
IC50 (H3K36me3 in A549 cells),IC50 (SETD2(1434-1711)),IC50 (H3K36me3 in A549 cells; Homo sapiens),Compound
> 25 µM,22.5 µM,–,Cc1cccc2cc(C(=O)Nc3ccn4ccnc4c3)[nH]c12 [compound 578]
> 25 µM,23 µM,–,Cc1cccnc1C(CCC(=O)NC1CCC(N)CC1)NC(=O)c1cc2cccc(C)c2[nH]1 (stereo not shown) [compound 579]
–,24.5 µM,> 25 µM,Cc1cccc2cc(C(=O)NCCc3ccccc3-n3ccnc3)[nH]c12 [compound 580]
> 25 µM,28.2 µM,–,Cc1cccc2cc(C(=O)NC3CCC(NS(=O)(=O)CCCN)CC3)[nH]c12 (stereo not shown) [compound 581]
–,31.2 µM,> 25 µM,CCN(CC)CCCC(NC(=O)c1cc2cccc(C)c2[nH]1)c1ncccc1C (stereo not shown) [compound 582]
–,32.4 µM,> 25 µM,Cc1ccc(C(=O)N2CCNCC2)cc1C(NC(=O)c1cc2cccc(C)c2[nH]1)C1CC1 (stereo not shown) [compound 583]
–,33.7 µM,> 25 µM,Cc1cc(C(=O)N[C@@H]2CC[C@@H]2N)cnc1C(NC(=O)c1cc2cccc(C)c2[nH]1)C1CC1 (stereo partly shown) [compound 584]
> 25 µM,34 µM,–,CNC(=O)C(NC(=O)c1cc2c(F)ccc(C)c2[nH]1)c1ccccn1 (stereo not shown) [compound 585]
–,36.4 µM,> 25 µM,CCOC(=O)CC(NC(=O)c1cc2cccc(C)c2[nH]1)c1ccccc1 (stereo not shown) [compound 586]
–,37.4 µM,> 25 µM,Cc1cccc2cc(C(=O)N[C@H]3CC[C@H](NC(=O)CCN4CCCCC4)CC3)[nH]c12 [compound 587]
–,40.4 µM,> 25 µM,Cc1cccc2cc(C(=O)N[C@@H]3CCN(C(=O)CCCN)C[C@@H]3C)[nH]c12 [compound 588]
–,43.6 µM,> 25 µM,CCN(CC)CCC(=O)N[C@H]1CC[C@H](NC(=O)c2cc3cccc(C)c3[nH]2)CC1 [compound 589]
–,> 50 µM,> 25 µM,Cc1cccnc1C1(NC(=O)c2cc3cccc(C)c3[nH]2)CNC1 [compound 591]
–,> 50 µM,> 25 µM,Cc1cccc2cc(C(=O)NC3CCN(C(=O)CCCN)C3)[nH]c12 (stereo not shown) [compound 593]
–,> 50 µM,> 25 µM,Cc1cccc2cc(C(=O)NC3CN(C(=O)CCCN)C3)[nH]c12 [compound 594]
> 25 µM,> 50 µM,–,Cc1cccnc1C(C)(C)NC(=O)c1cc2cccc(C)c2[nH]1 [compound 595]
–,> 50 µM,> 25 µM,Cc1cccc2cc(C(=O)N[C@H]3C[C@@H](NC(=O)CCN)C3)[nH]c12 [compound 596]
> 25 µM,> 50 µM,–,Cc1cccc2cc(C(=O)NC3CC(NC(=O)CCN)C3)[nH]c12 (stereo not shown) [compound 597]
–,> 50 µM,> 25 µM,Cc1cccnc1C(NC(=O)c1cc2ccnc(C)c2[nH]1)C1CC1 (stereo not shown) [compound 598]
–,> 50 µM,> 25 µM,Cc1cccc2cc(C(=O)NC3CCC(NC(=O)CCN)C3)[nH]c12 (stereo not shown) [compound 600]
> 25 µM,> 50 µM,–,Cc1cccnc1C(CN1CCOCC1)N(C)C(=O)c1cc2cccc(C)c2[nH]1 (stereo not shown) [compound 601]

IC50 (H3K36me3 in A549 cells),IC50 (SETD2(1434-1711)),IC50 (H3K36me3 in A549 cells; Homo sapiens),Compound
–,> 50 µM,> 25 µM,Cc1noc(CN)c1C(NC(=O)c1cc2cccc(C)c2[nH]1)C1CC1 (stereo not shown) [compound 602]
> 25 µM,> 50 µM,–,Cc1cccc2cc(C(=O)NC(CN(C)C)c3cccnc3)[nH]c12 (stereo not shown) [compound 603]
–,> 50 µM,> 25 µM,Cc1cccnc1C(NC(=O)c1cc2ncccn2n1)C1CC1 (stereo not shown) [compound 604]
> 25 µM,> 50 µM,–,Cc1cccc2cc(C(=O)NC3CCC(NC(=O)Cc4cccnc4)CC3)[nH]c12 (stereo not shown) [compound 605]
> 25 µM,> 50 µM,–,Cc1cccnc1C(NC(=O)c1cc2c(CO)ccc(C)c2[nH]1)C1CC1 (stereo not shown) [compound 606]
–,> 50 µM,> 25 µM,Cc1cccnc1C(NC(=O)C1Cc2cccc(C)c2N1)C1CC1 (stereo not shown) [compound 607]
> 25 µM,> 50 µM,–,Cc1cccnc1C(NC(=O)c1cc2cncc(C)c2[nH]1)C1CC1 (stereo not shown) [compound 608]
> 25 µM,> 50 µM,–,Cc1ccc(F)c2cc(C(=O)Nc3cccc4cccnc34)[nH]c12 [compound 609]
–,> 50 µM,> 25 µM,Cc1ccc(F)c2cc(C(=O)Nc3cc(N4CCN(C)CC4)ccn3)[nH]c12 [compound 612]
> 25 µM,62.7 µM,–,Cc1cccc2cc(C(=O)NC3CCN(C(=O)CCCN)CC3C)[nH]c12 (stereo not shown) [compound 614]
> 25 µM,71.1 µM,–,Cc1cccc2cc(C(=O)NC(c3cccc(CN(C)C)n3)C3CC3)[nH]c12 (stereo not shown) [compound 615]
–,105 µM,> 25 µM,Cc1cccc2cc(C(=O)N[C@@H](CO)c3ccccc3)[nH]c12 [compound 616]
> 25 µM,> 200 µM,–,Cc1cccc2cc(C(=O)NC3CC(=O)NCC(c4ccccc4)C3)[nH]c12 (stereo not shown) [compound 617]
–,> 200 µM,> 25 µM,Cc1cccnc1C(NC(=O)c1cc2cccc(Cc3ccn[nH]3)c2[nH]1)C1CC1 (stereo not shown) [compound 618]
–,> 200 µM,> 25 µM,Cc1cccc2cc(C(=O)N3CCCC34CCc3ccccc34)[nH]c12 (stereo not shown) [compound 619]
> 25 µM,> 200 µM,–,Cc1cccc2cc(C(=O)NC3CCNC(=O)c4ccccc43)[nH]c12 (stereo not shown) [compound 620]
> 25 µM,> 200 µM,–,Cc1cccc2cc(C(=O)NCCc3cc(Cl)ccc3N3CCOCC3)[nH]c12 [compound 622]
> 25 µM,> 200 µM,–,Cc1cccc2cc(C(=O)Nc3cn4ccnc4cn3)[nH]c12 [compound 623]
0.4 µM,0.4 µM,–,Cc1ccc(F)c2cc(C(=O)N[C@@H]3CCC[C@H](N4CCCNC(=O)C4)C3)[nH]c12 [compound 823]
0.04 µM,0.01 µM,–,CCOC(=O)N1CCN([C@H]2CCC[C@@H](NC(=O)c3cc4c(F)ccc(C)c4[nH]3)C2)CC1 [compound 824]
0.5 µM,0.1 µM,–,Cc1ccc(F)c2cc(C(=O)N[C@@H]3CCC[C@H](N4CCN(CC(F)(F)F)CC4)C3)[nH]c12 [compound 826]

IC50 (H3K36me3 in A549 cells),IC50 (SETD2(1434-1711)),IC50 (H3K36me3 in A549 cells; Homo sapiens),Compound
0.04 µM,0.02 µM,–,Cc1ccc(F)c2cc(C(=O)N[C@@H]3CCC[C@H](N4CCN(C(=O)N5CCOCC5)CC4)C3)[nH]c12 [compound 828]
0.4 µM,0.04 µM,–,CC(=O)NC1CCN([C@H]2CCC[C@@H](NC(=O)c3cc4c(F)ccc(C)c4[nH]3)C2)C1 (stereo partly shown) [compound 833]
–,0.02 µM,0.1 µM,Cc1ccc(F)c2cc(C(=O)N[C@@H]3CCC[C@H](N4CCN(C(=O)C(C)C)CC4)C3)[nH]c12 [compound 837]
0.04 µM,0.01 µM,–,CCC(=O)N1CCN([C@H]2CCC[C@@H](NC(=O)c3cc4c(F)ccc(C)c4[nH]3)C2)CC1 [compound 839]
> 2 µM,0.9 µM,–,CCC(=O)N1CCN([C@@H]2CCC[C@@H](NC(=O)c3cc4c(F)ccc(C)c4[nH]3)C2)CC1 [compound 840]
0.8 µM,0.2 µM,–,COCCN(C(C)=O)C1CCN(C2CCCC(NC(=O)c3cc4c(F)ccc(C)c4[nH]3)C2)C1 (stereo not shown) [compound 843]
> 2 µM,8.5 µM,–,COCCN(C(C)=O)C1CCN(C2CCCC(NC(=O)c3cc4c(F)ccc(C)c4[nH]3)C2)C1 (stereo not shown) [compound 844]
0.1 µM,0.02 µM,–,COCC(=O)N1CCN([C@H]2CCC[C@@H](NC(=O)c3cc4c(F)ccc(C)c4[nH]3)C2)CC1 [compound 846]
> 2 µM,1 µM,–,COCC(=O)N1CCN([C@@H]2CCC[C@@H](NC(=O)c3cc4c(F)ccc(C)c4[nH]3)C2)CC1 [compound 847]
1 µM,0.1 µM,–,Cc1ccc(F)c2cc(C(=O)NC3CCCC(N4CCn5ccnc5C4)C3)[nH]c12 (stereo not shown) [compound 852]
0.5 µM,0.02 µM,–,Cc1ccc(F)c2cc(C(=O)N[C@@H]3CCC[C@H](N4CCN(C(=O)CN(C)C)CC4)C3)[nH]c12 [compound 854]
> 2 µM,4.7 µM,–,Cc1ccc(F)c2cc(C(=O)N[C@@H]3CCC[C@@H](N4CCN(C(=O)CN(C)C)CC4)C3)[nH]c12 [compound 855]
0.3 µM,0.2 µM,–,CC(=O)N1CCN([C@H]2CCC[C@@H](NC(=O)c3cc4cccc(C)c4[nH]3)C2)CC1 [compound 856]
> 2 µM,7.4 µM,–,CC(=O)N1CCN([C@@H]2CCC[C@@H](NC(=O)c3cc4cccc(C)c4[nH]3)C2)CC1 [compound 857]
> 2 µM,0.4 µM,–,CNC(=O)CN1CCN(C2CCC[C@@H](NC(=O)c3cc4c(F)ccc(C)c4[nH]3)C2)CC1 (stereo partly shown) [compound 858]
1.9 µM,0.5 µM,–,Cc1ccc(F)c2cc(C(=O)N[C@@H]3CCCC(N4CCN(CC(=O)N(C)C)CC4)C3)[nH]c12 (stereo partly shown) [compound 859]
1.6 µM,0.1 µM,–,Cc1ccc(F)c2cc(C(=O)NC3CCCC(N4CCn5cnnc5C4)C3)[nH]c12 (stereo not shown) [compound 860]
> 2 µM,1.9 µM,–,Cc1ccc(F)c2cc(C(=O)N[C@@H]3CCC[C@@H](N4CCn5cnnc5C4)C3)[nH]c12 [compound 861]
> 2 µM,0.4 µM,–,CC(=O)N(C(C)C)C1CCN(C2CCC[C@@H](NC(=O)c3cc4c(F)ccc(C)c4[nH]3)C2)C1 (stereo partly shown) [compound 862]
0.1 µM,0.03 µM,–,Cc1ccc(F)c2cc(C(=O)NC3CCCC(N4CCN5C(=O)OCC5C4)C3)[nH]c12 (stereo not shown) [compound 865]
